Values quoted from earlier work as cited in patent US20200030253A1, “Methods and compositions for treatment of body conditions” (priority 2018, published 2020).

Settings: octanol-water

C=C(C)[C@@H]1CCC(C)=C[C@H]1c1c(O)cc(CCCCC)cc1O [Cannabidiol]
Koctanol-water (lipophilicity): 6-7
